According to PubChem BioAssay (NCI):
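Five compound concentrations were applied to cells in 96-well plates for 48 hours; endpoints were derived by simple linear interpolation of the resulting dose-response curve. The concentration for 50% growth inhibition is given as GI50. TGI marks complete inhibition of growth.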

Tests used:
Assay in all cases: growth of human tumour cells (NCI), 48 h
[1] = tested on: MALME-3M melanoma
[2] = tested on: MCF7 breast
[3] = tested on: SF-539 CNS
[4] = tested on: UO-31 renal
[5] = tested on: BT-549 breast
[6] = tested on: SK-MEL-28 melanoma
[7] = tested on: EKVX NSCLC
[8] = tested on: NCI-H522 lung
[9] = tested on: HL-60(TB) leukemia
[10] = tested on: SR leukemia

| Compound | GI50 [1] [µM] | TGI [1] [µM] | GI50 [2] [µM] | TGI [2] [µM] | GI50 [3] [µM] | TGI [3] [µM] | GI50 [4] [µM] | TGI [4] [µM] | GI50 [5] [µM] | TGI [5] [µM] | GI50 [6] [µM] | TGI [6] [µM] | GI50 [7] [µM] | TGI [7] [µM] | GI50 [8] [µM] | TGI [8] [µM] | GI50 [9] [µM] | TGI [9] [µM] | GI50 [10] [µM] | TGI [10] [µM] |
| --- | --- | --- | --- | --- | --- | --- | --- | --- | --- | --- | --- | --- | --- | --- | --- | --- | --- | --- | --- | --- |
| COc1ccc(C(=O)COc2ccc(/C=C3\COc4ccc(OC)cc4C3=O)cc2)cc1 | 57.2 | > 100 | 3.1 | 18.6 | 25.2 | 65.6 | 18.4 | 61.5 | 16.2 | 35.8 | 19.9 | 56.9 | 41.2 | > 100 | 16.7 | 74.5 | 11 | 62.8 | 2.09 | 5.91 |
| C/C(N=NC(=S)N(C)C)=C1\C=CC=CN1O | – | > 67.2 | – | > 100 | < 0.1 | > 100 | – | > 97.4 | – | > 100 | – | > 100 | – | > 100 | – | > 56.2 | – | > 53 | – | > 100 |
| C=C1C(=O)OC2/C=C(\COC(C)=O)CCC(OC(C)=O)C3=CC(OC3=O)C12 (centres undefined) | – | 4.41 | – | 15.5 | – | 16.4 | – | 35.5 | – | 22.6 | – | 11.6 | – | 34.3 | – | 1.14 | – | > 20.3 | – | 16.1 |
| Br[C](Br)(Br)[Hg][c]1ccccc1 | 1.31 | 3.99 | 4.85 | 19.4 | 18 | 33.7 | 20.2 | 34.5 | 17.2 | 31.1 | 14.3 | 27.8 | 22 | 37.7 | 1.44 | 3.05 | 2.28 | 6.62 | 3.32 | 20.4 |
| O=S(=O)(Nc1cc(Sc2cccc3cccnc23)c(O)c2ccccc12)c1ccccc1 | 2.72 | 9.65 | 0.52 | 2.85 | 0.957 | 5.13 | 0.734 | 4.76 | 2.9 | 16 | 0.801 | 5.57 | 1.01 | 8.55 | 2.12 | 8.17 | 0.487 | 4.69 | 0.426 | 17.2 |
| CCCCON(OC(=O)c1ccc2ccc3cccc4ccc1c2c34)C(C)=O | 18.3 | 37.5 | 26.3 | 68.9 | 18.5 | 35.6 | 19.5 | 42.4 | 19.2 | 42.7 | 27.1 | 81.7 | 27.3 | > 100 | 19.4 | 45.7 | 19.2 | 44.2 | 13.2 | 35.1 |
| O=C(O)C1C(Br)(c2ccccc2)C1(Br)c1ccccc1 (centres undefined) | – | > 100 | – | > 100 | – | > 100 | – | 47.2 | – | 49.5 | – | 52.6 | – | > 100 | – | 43.9 | – | > 100 | – | > 100 |
| ClCC[N+]12CC[N+](CCCl)(CC1)C2 | – | > 100 | – | > 100 | – | > 100 | – | > 100 | – | > 100 | – | > 100 | – | > 100 | – | > 100 | – | > 100 | – | > 100 |
| Clc1ccc(C=Nc2ccc3c(c2)Cc2ccccc2-3)c(Cl)c1 | – | > 100 | – | > 100 | – | > 100 | – | > 100 | – | > 100 | – | > 100 | – | > 100 | – | > 100 | – | > 100 | – | > 100 |
| CC1=C[C@H]2c3c(c(O)c(O)c4oc(-c5ccccc5)cc(=O)c34)[C@H](c3cc(O)c(O)c4oc(-c5ccccc5)cc(=O)c34)[C@H]2C(C)(C)C1 | 1.57 | 7.76 | 0.597 | 9.16 | 0.364 | 7.52 | 0.527 | 2 | 1.58 | 8.59 | 1.12 | 9.51 | 1.14 | 11.4 | 1.77 | 6.23 | 2.33 | 7.33 | 0.457 | > 75 |
| Cc1ccc2[nH]c(O)c(N=Nc3ccc(S(N)(=O)=O)cc3)c2c1 | > 22.4 | > 25 | 8.4 | > 25 | 8.73 | > 25 | 12.7 | > 25 | 9.88 | > 18.4 | 24.4 | > 25 | > 25 | > 25 | 8.94 | > 25 | > 25 | > 25 | 7.23 | > 25 |
| O=C1CSC(c2ccc(Cl)cc2Cl)N1c1ccc(F)cc1 (centres undefined) | 20.4 | 35.5 | 14 | 27 | 19.2 | 33.4 | 16.6 | 31.5 | 18 | 32.3 | – | – | 17.6 | 34.8 | 15.1 | 31.1 | 21.2 | 45.6 | 19.6 | 40.9 |
| COc1ccc(CC2NCCc3cc(OC)c(OC)cc32)cc1Br (centres undefined) | – | 34.3 | – | > 100 | – | > 100 | – | > 100 | – | > 100 | – | 33.7 | – | > 100 | – | > 100 | – | 28.1 | – | 74.6 |
| ClCc1cccc(Cn2cnc3nc(Cl)nc(Cl)c32)c1 | 6.15 | 13 | 0.505 | 1.38 | 0.189 | 0.496 | 4.43 | 9.1 | 0.487 | 1.75 | 0.503 | 1.13 | 0.84 | 2.2 | 1.84 | 3.79 | 1.16 | 2.38 | 0.233 | 2.6 |
| CC(C)(C[C@H]1CN(S(=O)(=O)c2cccc(C(F)(F)F)c2)c2cc(-c3cc(F)cc(OC(F)F)c3)ccc2O1)C(=O)O | 10.2 | 25.1 | 3.98 | 22.4 | 5.41 | 19.1 | 10.8 | 23.4 | 5.9 | 22.3 | 10.9 | 24.4 | 5.25 | 19.3 | 2.5 | 10.7 | 4.82 | 24.8 | 3.29 | 23.8 |
| COc1cc(NC(C)CCCN)c2nccc(C)c2c1 (centres undefined) | – | 35.6 | – | 33.2 | – | 35.3 | – | 53.8 | – | 56.7 | – | 35.3 | – | > 100 | – | 33.3 | – | 21.1 | – | 53.1 |
| O=C1NC(=O)C(CC2CCCCCCCCCCC2=O)C(=O)N1 (centres undefined) | – | – | – | > 100 | – | > 100 | – | > 100 | – | > 100 | – | > 100 | – | > 100 | – | > 100 | – | > 100 | – | 5.28 |
| COc1cc(C(=O)c2cc(C)c3[nH]c4ccc(C)cc4c3c2C)cc(OC)c1OC | < 0.01 | > 100 | < 0.01 | > 100 | < 0.01 | < 0.01 | < 0.01 | > 100 | < 0.01 | 2.45 | 1.64 | > 100 | < 0.01 | > 100 | < 0.01 | – | < 0.01 | < 0.01 | < 0.01 | > 100 |
| CCOc1cc(C(C)(C)C)ccc1C1=N[C@@](C)(c2ccc(Cl)cc2)[C@@](C)(c2ccc(Cl)cc2)N1C(=O)N1CCN(CCCS(C)(=O)=O)CC1 | 0.274 | 11.3 | 0.456 | 3.89 | 5.12 | 16.9 | 0.401 | 8.59 | 2.76 | 15.1 | 6.1 | 19.3 | 4.3 | 23.7 | 7.11 | 39.2 | 2.48 | 6.15 | 0.236 | > 100 |
| CC/C=C\C[C@H]1C/C=C2/C(=O)C=C[C@@H]2C/C=C\CCCC(=O)O1 | 1.92 | 4.86 | 0.395 | 8.06 | 0.855 | 2.67 | 1.13 | 2.48 | 0.674 | 3.22 | 0.791 | 3.07 | 2.04 | 5.89 | 0.57 | 2.45 | 0.439 | 3.3 | 0.288 | – |
| CC1(C)[C@@H](OC(N)=O)[C@H]2O[C@H]2[C@]2(C=O)[C@H]3CC[C@]4(C)[C@@H](c5ccc(=O)oc5)[C@@H](Cl)C[C@]4(O)C3=CC[C@@H]12 | 0.00629 | 0.0138 | 0.00724 | 0.0281 | 0.00439 | 0.00833 | 0.00572 | 0.0163 | 0.00501 | 0.0103 | 0.00794 | 0.0268 | 0.00472 | 0.0102 | 0.0035 | 0.0104 | 0.00557 | 0.0131 | 0.00617 | 0.0185 |
| O=C1Nc2ccc(F)cc2/C1=C/c1ccc[nH]1 | > 25 | > 25 | 1.06 | > 25 | > 25 | > 25 | > 16.8 | > 25 | > 18.8 | > 25 | > 25 | > 25 | – | – | > 25 | > 25 | > 25 | > 25 | 7.84 | > 25 |
| CCn1c(-c2ccc(OC(C)=O)cc2)c(C)c2cc(OC(C)=O)ccc21 | – | 76 | – | 40.4 | – | 43.5 | – | 47.9 | – | 88.8 | – | 59.1 | – | 71.4 | – | 40 | – | 42.9 | – | 30.8 |
| O=C(CCC1OCCO1)Nc1cc(NCc2ccccc2)ccc1OCc1ccccc1 | – | 62.7 | – | > 100 | – | 94.6 | – | > 100 | – | > 100 | – | > 100 | – | 65.5 | – | 78.6 | – | 97.3 | – | 92 |
| CN(C)C(=O)[C@H](O)[C@H](Cc1ccccc1)NC(=O)c1cc2cc(Cl)ccc2[nH]1 | 16.2 | 44.1 | 22.1 | > 83.3 | 20.2 | 43.3 | 14.8 | 39.8 | 22.8 | 72.1 | 19 | 54.5 | 25.7 | > 100 | 21.5 | 68.7 | 19.1 | 54.1 | 26.6 | 88.7 |
